Among the data in ChEMBL document CHEMBL5728754 (2021) are Ki values, retold here.

The assay deals with Mitogen-activated protein kinase kinase kinase kinase 1 (Homo sapiens, UniProt Q92918). The assay can be described thus: HPK1 Biochemical Enzyme Assay: HPK1 enzyme inhibition was measured using a microfluidic mobility shift assay (MSA). The reactions were conducted in 50 μL volumes in 96-well plates, and contained 0.5 nM human full-length recombinant HPK1, 3 μM phosphoacceptor peptide, 5FAM-[…]-COOH (CPC Scientific, Sunnyvale, Calif.), test compound (11-dose 3-fold serial dilutions, 2% DMSO final) or DMSO only, 0.002% Tween-20, 1 mM DTT and 2.5 mM MgCl2 in 50 mM MOPS (3-(N-morpholino)propanesulfonic acid), pH 7.8, buffer and were initiated by addition of 75 μM ATP, following a 20-min preincubation. The reactions were conducted for 60 min at 37° C., stopped by the addition of 50 μL of 0.015 M EDTA, pH 8, and the extent of reactions (˜15-20% conversion with no inhibitor) was determined after electrophoretic separation of the fluorescently labeled peptide substrate and phosphorylated product on an LabChip EZ Reader II (PerkinElmer, Inc., Waltham, Mass.).Inhibition of HPK1 was also measured using the fluorescence based chelation-enhanced fluorescence (CHEF) method (1), using a proprietary fluorescent peptide substrate, in which a cysteine residue is alkylated with a sulfonamido-oxine based derivative to afford an amino acid termed C-Sox (CSx). The assay was conducted similarly as described for the MSA method above, but using 3 μM Ac-[CSx][…]-amide peptide substrate (also known as AQT0178 when purchased from AssayQuant Technologies Inc., Hopkinton, Mass.) and 45 μM ATP. Initial reaction velocities were determined by following the peptide fluorescence (λex=360 nm, λem=500 nm) at 30° C. for 15 min in a Tecan M1000 plate reader (Tecan Group Ltd., Männedorf, Zürich, Switzerland). […] HPK1 protein was produced in-house and preactivated by autophosphorylation of enzyme with MgATP as described in the section “Production of recombinant autophosphorylated full-length HPK1”. Type of assay: single protein.
Sequence of Mitogen-activated protein kinase kinase kinase kinase 1 (Q92918 whole entry): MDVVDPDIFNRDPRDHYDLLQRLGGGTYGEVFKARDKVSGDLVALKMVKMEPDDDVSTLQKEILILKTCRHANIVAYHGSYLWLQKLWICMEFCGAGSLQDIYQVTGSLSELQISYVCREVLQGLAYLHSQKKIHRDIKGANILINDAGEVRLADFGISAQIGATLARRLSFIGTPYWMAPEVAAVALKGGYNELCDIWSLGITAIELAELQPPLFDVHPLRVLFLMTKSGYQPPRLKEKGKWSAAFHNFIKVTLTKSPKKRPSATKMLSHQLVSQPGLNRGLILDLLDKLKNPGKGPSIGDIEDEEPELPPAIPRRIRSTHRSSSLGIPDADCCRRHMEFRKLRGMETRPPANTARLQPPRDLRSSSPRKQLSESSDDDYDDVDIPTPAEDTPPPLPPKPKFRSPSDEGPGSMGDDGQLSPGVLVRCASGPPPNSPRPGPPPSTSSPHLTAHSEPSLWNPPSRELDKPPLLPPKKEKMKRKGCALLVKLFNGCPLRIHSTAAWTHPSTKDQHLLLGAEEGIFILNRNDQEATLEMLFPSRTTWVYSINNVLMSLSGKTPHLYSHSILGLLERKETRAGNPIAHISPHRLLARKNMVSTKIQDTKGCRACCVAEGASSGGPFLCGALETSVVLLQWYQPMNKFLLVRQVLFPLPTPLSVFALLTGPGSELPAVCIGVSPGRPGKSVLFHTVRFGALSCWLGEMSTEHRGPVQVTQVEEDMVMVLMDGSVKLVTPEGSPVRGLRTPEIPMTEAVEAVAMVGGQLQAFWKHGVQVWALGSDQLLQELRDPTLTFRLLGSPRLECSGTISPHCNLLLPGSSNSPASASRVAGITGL
Broadly, the Ki is a measure of affinity in units of concentration, obtained from inhibition or displacement. In the case of `CCn1c(C)nnc1-c1cccc(N2Cc3c(cc(N4CCC[C@H]4C)nc3CNC)C2=O)n1`, the Ki was found to be 0.09 nM.

For the compound `CNCc1nc(NC)cc2c1CN(c1cccc(-c3nncn3C(C)C)n1)C2=O`, the Ki amounted to 0.72 nM.

Take `CNCc1nc(N2CCCC2)cc2c1CN(c1cccc(-c3nncn3[C@@H](C)CC(F)(F)F)n1)C2=O`: the Ki was less than 0.07 nM.

Take `Cc1nnc(-c2cccc(N3Cc4c(cc(N5CCCC5(C)C)nc4CN)C3=O)n2)n1C(C)C`: the Ki was 0.1 nM.
